Measured values as given in patent publication US20240009213A1, “TREATMENT FOR VIRAL INFECTION” (priority 2020, published 2024).

Tests used:
[1] = test system: influenza A/California/07/2009 (H1N1), influenza A/PR/8/1934 (H1N1), influenza A/Vietnam/1194/2004 (H5N1); test: microbe, parasite or virus in culture; type: cell-based, influenza A virus; settings: for IC50: Influenza A virus, MDCK, 50 h
[2] = test system: influenza A/PuertoRico/1934 (H1N1); test: Protection of mice against lethal influenza H1N1 challenge; type: in vivo, BALB/c mice; settings: 5×LD50 influenza A/PuertoRico/1934 (H1N1) day 0; 25 mg/kg orally once daily day 1 to day 7
[3] = test system: SARS-CoV-2; test: Protection of mice against lethal SARS-CoV-2 challenge; type: in vivo, F1 mice of BALB/c/C57BL6 mice; settings: 5×LD50 SARS-CoV-2 day 0; 25 mg/kg orally once daily day 1 to day 7
[4] = test system: SARS-CoV-2; type: cell-based

SMILES	IC50 [1]	also measured
CN1CCN(c2ccc(C(=O)Nc3n[nH]c4ccc(Cc5cc(F)cc(F)c5)cc34)c(NC3CCOCC3)c2)CC1 [entrectinib, N-[5-[(3,5-difluorophenyl)methyl]-1H-indazol-3-yl]-4-(4-methylpiperazin-1-yl)-2-(oxan-4-ylamino)benzamide]	1000 to 4000 nM	–
COc1cc(N2CCC(N3CCN(C)CC3)CC2)ccc1Nc1ncc(Cl)c(Nc2ccccc2P(C)(C)=O)n1 [brigatinib, 5-chloro-4-N-(2-dimethylphosphorylphenyl)-2-N-[2-methoxy-4-[4-(4-methylpiperazin-1-yl)piperidin-1-yl]phenyl]pyrimidine-2,4-diamine]	1000 to 4000 nM	survival of mice [2]: 12.5%
Cc1cc(Nc2ncc(Cl)c(Nc3ccccc3S(=O)(=O)C(C)C)n2)c(OC(C)C)cc1C1CCNCC1 [ceritinib, 5-chloro-2-N-(5-methyl-4-piperidin-4-yl-2-propan-2-yloxyphenyl)-4-N-(2-propan-2-ylsulfonylphenyl)pyrimidine-2,4-diamine]	100 to 1000 nM	survival of mice [3]: 29%
C[C@@H]1CN(C(=O)c2ccc(NC(=O)c3cc(O[C@H](C)c4c(Cl)ccc(F)c4Cl)c(N)nn3)cc2)C[C@H](C)N1 [ensartinib, 6-amino-5-[(1R)-1-(2,6-dichloro-3-fluorophenyl)ethoxy]-N-[4-[(3R,5S)-3,5-dimethylpiperazine-1-carbonyl]phenyl]pyridazine-3-carboxamide]	1000 to 4000 nM	–
CCc1cc2c(cc1N1CCC(N3CCOCC3)CC1)C(C)(C)c1[nH]c3cc(C#N)ccc3c1C2=O [alectinib, 9-ethyl-6,6-dimethyl-8-(4-morpholin-4-ylpiperidin-1-yl)-11-oxo-5H-benzo[b]carbazole-3-carbonitrile]	1000 to 4000 nM	–
C[C@@H](Oc1cc(-c2cnn(C3CCNCC3)c2)cnc1N)c1c(Cl)ccc(F)c1Cl [crizotinib, 3-[(1R)-1-(2,6-dichloro-3-fluorophenyl)ethoxy]-5-(1-piperidin-4-ylpyrazol-4-yl)pyridin-2-amine]	1000 to 4000 nM	survival of mice [2]: 38%
C[C@H]1Oc2cc(cnc2N)-c2c(nn(C)c2C#N)CN(C)C(=O)c2ccc(F)cc21 [lorlatinib]	–	inhibition of SARS-CoV-2 [4]: but not lorlatinib, inhibited SARS-CoV-2; virus assembly/secretion (viral OD, viral titres) [1]: viral titres remain high for all doses tested
